# Non-standard residues stand in square brackets, D forms with d. No end group written: not given here.
# Tests used:
# [1] = test system: peptide-pulsed A24LCL cells; experiment: IFN-gamma ELISPOT assay on CTLs induced with VANGL1 peptides; type: cell-based, human; conditions: CTLs from HLA-A*2402 positive donor after 3rd peptide stimulation, day 21; compared to the control wells
# Description: (§1) Monocyte-derived dendritic cells (DCs) were used as antigen-presenting cells (APCs) to induce cytotoxic T lymphocyte (CTL) responses against peptides presented on human leukocyte antigen (HLA). DCs were generated in vitro as described elsewhere (Nakahara S et al., Cancer Res 2003 Jul. 15, 63(14): 4112-8). Specifically, peripheral blood mononuclear cells (PBMCs) isolated from a normal volunteer (HLA-A*2402 positive) by Ficoll-Plaque (Pharmacia) solution were separated by adherence to a plastic tissue culture dish (Becton Dickinson) so as to enrich them as the monocyte fraction. The monocyte-enriched population was cultured in the presence of 1,000 U/ml of granulocyte-macrophage colony-stimulating factor (GM-CSF) (R&D System) and 1,000 U/ml of interleukin (IL)-4 (R&D System) in AIM-V Medium (Invitrogen) containing 2% heat-inactivated autologous serum (AS). After 7 days of culture, the cytokine-induced DCs were pulsed with 20 micro-g/ml of each of the synthesized peptides in the presence of 3 micro-g/ml of beta 2-microglobulin for 3 hrs at 37 degrees C. in AIM-V Medium. The generated cells appeared to express DC-associated molecules, such as CD80, CD83, CD86 and HLA class II, on their cell surfaces (data not shown). These peptide-pulsed DCs were then inactivated by X-irradiation (20 Gy) and mixed at a 1:20 ratio with autologous CD8+ T cells, obtained by positive selection with CD8 Positive Isolation Kit (Dynal). These cultures were set up in 48-well plates (Corning); each well contained 1.5×10^4 peptide-pulsed DCs, 3×10^5 CD8+ T cells and 10 ng/ml of IL-7 (R&D System) in 0.5 ml of AIM-V/2% AS medium. Three days later, these cultures were supplemented with IL-2 (CHIRON) to a final concentration of 20 IU/ml. On days 7 and 14, the T cells were further stimulated with the autologous peptide-pulsed DCs. The DCs were prepared each time by the same way described above. CTL was tested against peptide-pulsed A24LCL cells after the 3rd round of peptide stimulation on day 21 (Tanaka H et al., Br J Cancer 2001 Jan. 5, 84(1): 94-9; Umano Y et al., Br J Cancer 2001 Apr. 20, 84(8): 1052-7; Uchida N et al., Clin Cancer Res 2004 Dec. 15, 10(24): 8577-86; Suda T et al., Cancer Sci 2006 May, 97(5): 411-9; Watanabe T et al., Cancer Sci 2005 August, 96(8): 498-506).
# (§2) To examine specific CTL activity, interferon (IFN)-gamma enzyme-linked immunospot (ELISPOT) assay and IFN-gamma enzyme-linked immunosorbent assay (ELISA) were performed. Specifically, peptide-pulsed A24LCL (1×10^4/well) was prepared as stimulator cells. Cultured cells in 48 wells were used as responder cells. IFN-gamma ELISPOT assay and IFN-gamma ELISA assay were performed under manufacture procedure.
# [2] = test system: peptide-pulsed A24LCL cells; experiment: IFN-gamma ELISA assay of established CTL lines; type: cell-based, human; conditions: target cells pulsed with corresponding peptide vs target cells without peptide pulse
# Description: as §1
# CTLs were expanded in culture using the method similar to the one described by Riddell et al. (Walter E A et al., N Engl J Med 1995 Oct. 19, 333(16): 1038-44; Riddell S R et al., Nat Med 1996 February, 2(2): 216-23). A total of 5×10^4 CTLs were suspended in 25 ml of AIM-V/5% AS medium with 2 kinds of human B-lymphoblastoid cell lines, inactivated by Mitomycin C, in the presence of 40 ng/ml of anti-CD3 monoclonal antibody (Pharmingen). One day after initiating the cultures, 120 IU/ml of IL-2 were added to the cultures. The cultures were fed with fresh AIM-V/5% AS medium containing 30 IU/ml of IL-2 on days 5, 8 and 11 (Tanaka H et al., Br J Cancer 2001 Jan. 5, 84(1): 94-9; Umano Y et al., Br J Cancer 2001 Apr. 20, 84(8): 1052-7; Uchida N et al., Clin Cancer Res 2004 Dec. 15, 10(24): 8577-86; Suda T et al., Cancer Sci 2006 May, 97(5): 411-9; Watanabe T et al., Cancer Sci 2005 August, 96(8): 498-506).
# as §2
# [3] = test system: target cells pulsed peptide; experiment: IFN-gamma ELISA assay of CTL clones established by limiting dilution; type: cell-based, human; conditions: CTL clones against target cells pulsed peptide
# Method: The dilutions were made to have 0.3, 1, and 3 CTLs/well in 96 round-bottomed micro titer plate (Nalge Nunc International). CTLs were cultured with 1×10^4 cells/well of 2 kinds of human B-lymphoblastoid cell lines, 30 ng/ml of anti-CD3 antibody, and 125 U/ml of IL-2 in a total of […] of AIM-V Medium containing 5% AS. 50 micro-Dwell of IL-2 were added to the medium 10 days later so to reach a final concentration of 125 U/ml IL-2. CTL activity was tested on the 14th day, and CTL clones were expanded using the same method as described above (Uchida N et al., Clin Cancer Res 2004 Dec. 15, 10(24): 8577-86; Suda T et al., Cancer Sci 2006 May, 97(5): 411-9; Watanabe T et al., Cancer Sci 2005 August, 96(8): 498-506).
# as §2
# [4] = test system: COS7 cells transfected with VANGL1 and HLA-A*2402; experiment: Specific CTL activity against target cells exogenously expressing VANGL1 and HLA-A*2402; type: cell-based, African green monkey
# Description: The cDNA encoding an open reading frame of target genes or HLA-A*2402 was amplified by PCR. The PCR-amplified product was cloned into pCAGGS vector. The plasmids were transfected into COS7, which is the target genes and HLA-A24-negative cell line, using lipofectamine 2000 (Invitrogen) according to the manufacturer's recommended procedures. After 2 days from transfection, the transfected cells were harvested with versene (Invitrogen) and used as the target cells (5×10^4 cells/well) for CTL activity assay.
# The established CTL lines raised against these peptides were examined for their ability to recognize target cells that endogenously express VANGL1 and HLA-A*2402 molecule. Specific CTL activity against COS7 cells which transfected with both the full length of VANGL1 and HLA-A*2402 molecule gene (a specific model for the target cells that exogenously express VANGL1 and HLA-A*2402 gene) was tested using the CTL lines raised by corresponding peptide as the effecter cells. COS7 cells transfected with either full length of VANGL1 genes or HLA-A* 2402 were prepared as controls.
Substance,Peptide specific CTL activity: IFN-gamma production (ELISPOT) [1],CTL activity of CTL lines: IFN-gamma production (ELISA) [2],IFN-gamma production from CTL clones (ELISA) [3],Specific CTL activity ([4]; COS7 cells expressing both VANGL1 and HLA-A*2402),Specific CTL activity ([4]; controls: COS7 cells transfected with either full length VANGL1 or HLA-A*2402)
DFTIyNPNLL (DFTI[code y]NPNLL) [SEQ ID NO: 26],potent IFN-gamma production,,,,
HYLAiVLLEL (HYLA[code i]VLLEL) [SEQ ID NO: 18],potent IFN-gamma production,potent IFN-gamma production,Potent IFN-gamma productions,,
LFIHyLAIVL (LFIH[code y]LAIVL) [SEQ ID NO: 24],potent IFN-gamma production,potent IFN-gamma production,Potent IFN-gamma productions,,
LFISmAFKLL (LFIS[code m]AFKLL) [SEQ ID NO: 25],potent IFN-gamma production,potent IFN-gamma production,,,
LFVVSYWLF [SEQ ID NO: 12],potent IFN-gamma production,potent IFN-gamma production,,,
NYQGiVQYAV (NYQG[code i]VQYAV) [SEQ ID NO: 32],potent IFN-gamma production,potent IFN-gamma production,,,
RYLGLTVAS [SEQ ID NO: 11],potent IFN-gamma production,potent IFN-gamma production,,,
RYLSAGPTL [SEQ ID NO: 1],potent IFN-gamma production,potent IFN-gamma production,,potent CTL activity,no significant specific CTL activity
VELTpIAFIL [SEQ ID NO: 22],potent IFN-gamma production,potent IFN-gamma production,Potent IFN-gamma productions,,
VFRALLLVL [SEQ ID NO: 9],potent IFN-gamma production,potent IFN-gamma production,,,
VFVFRALLL [SEQ ID NO: 8],potent IFN-gamma production,potent IFN-gamma production,Potent IFN-gamma productions,,
